PubChem BioAssay (NCI)
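Following 48 hours of exposure in 96-well plates, responses at five concentrations were used to interpolate endpoints linearly. Abbreviation: GI50, concentration required for 50% inhibition of growth. The concentration for full growth arrest is given as TGI.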

What was measured:
Assay in all cases: NCI-60 cell line screen, 48 h
OVCAR-8 ovarian = system: OVCAR-8 ovarian
OVCAR-5 ovarian = system: OVCAR-5 ovarian
SW-620 colon = system: SW-620 colon
SR leukemia = system: SR leukemia
TK-10 renal = system: TK-10 renal
SNB-19 CNS = system: SNB-19 CNS
HT29 colon = system: HT29 colon
SF-539 CNS = system: SF-539 CNS
NCI-H23 lung = system: NCI-H23 lung
UACC-257 melanoma = system: UACC-257 melanoma
EKVX NSCLC = system: EKVX NSCLC
HL-60(TB) leukemia = system: HL-60(TB) leukemia
NCI/ADR-RES ovarian = system: NCI/ADR-RES ovarian
MDA-MB-435 = system: MDA-MB-435
BT-549 breast = system: BT-549 breast
LOX IMVI melanoma = system: LOX IMVI melanoma
U251 CNS = system: U251 CNS
UACC-62 melanoma = system: UACC-62 melanoma
CAKI-1 renal = system: CAKI-1 renal
DU-145 prostate = system: DU-145 prostate
RXF 393 renal = system: RXF 393 renal
786-0 renal = system: 786-0 renal
A549 NSCLC = system: A549 NSCLC
SK-MEL-28 melanoma = system: SK-MEL-28 melanoma
T-47D breast = system: T-47D breast
HCC-2998 colon = system: HCC-2998 colon
NCI-H226 lung = system: NCI-H226 lung
MOLT-4 leukemia = system: MOLT-4 leukemia
HCT-116 colon = system: HCT-116 colon
KM12 colon = system: KM12 colon
HS 578T breast = system: HS 578T breast
UO-31 renal = system: UO-31 renal
HCT-15 colon = system: HCT-15 colon
SK-MEL-2 melanoma = system: SK-MEL-2 melanoma
HOP-92 NSCLC = system: HOP-92 NSCLC
M14 melanoma = system: M14 melanoma
IGROV1 ovarian = system: IGROV1 ovarian
HOP-62 NSCLC = system: HOP-62 NSCLC
NCI-H522 lung = system: NCI-H522 lung
ACHN renal = system: ACHN renal
SF-268 CNS = system: SF-268 CNS
OVCAR-3 ovarian = system: OVCAR-3 ovarian
A498 renal = system: A498 renal
SK-OV-3 ovarian = system: SK-OV-3 ovarian
OVCAR-4 ovarian = system: OVCAR-4 ovarian
MALME-3M melanoma = system: MALME-3M melanoma
K-562 leukemia = system: K-562 leukemia
NCI-H460 lung = system: NCI-H460 lung
SN12C renal = system: SN12C renal
MCF7 breast = system: MCF7 breast
RPMI-8226 leukemia = system: RPMI-8226 leukemia
SNB-75 CNS = system: SNB-75 CNS
SK-MEL-5 melanoma = system: SK-MEL-5 melanoma
MDA-MB-231 breast = system: MDA-MB-231 breast
PC-3 prostate = system: PC-3 prostate
CCRF-CEM leukemia = system: CCRF-CEM leukemia
COLO 205 colon = system: COLO 205 colon
SF-295 CNS = system: SF-295 CNS

## C[n+]1c2ccccc2nc2ccccc21
OVCAR-8 ovarian
  GI50: 2610 nM
  TGI: 20600 nM
OVCAR-5 ovarian
  GI50: 1660 nM
  TGI: 3560 nM
SW-620 colon
  GI50: 1370 nM
  TGI: 3260 nM
SR leukemia
  GI50: 6140 nM
  TGI: > 28200 nM
TK-10 renal
  GI50: 2710 nM
  TGI: 13000 nM
SNB-19 CNS
  GI50: 4030 nM
  TGI: 16800 nM
HT29 colon
  GI50: 1760 nM
  TGI: 12000 nM
SF-539 CNS
  GI50: 1680 nM
  TGI: 4760 nM
NCI-H23 lung
  GI50: 670 nM
  TGI: 2340 nM
UACC-257 melanoma
  GI50: 1800 nM
  TGI: 5010 nM
EKVX NSCLC
  GI50: 1690 nM
  TGI: 7960 nM
HL-60(TB) leukemia
  GI50: 1740 nM
  TGI: > 16100 nM
NCI/ADR-RES ovarian
  GI50: 1680 nM
  TGI: 6910 nM
MDA-MB-435
  GI50: 516 nM
  TGI: 1750 nM
BT-549 breast
  GI50: 2260 nM
  TGI: 10800 nM
LOX IMVI melanoma
  GI50: 819 nM
  TGI: 2380 nM
U251 CNS
  GI50: 1440 nM
  TGI: 3090 nM
UACC-62 melanoma
  GI50: 1410 nM
  TGI: 2990 nM
CAKI-1 renal
  GI50: 2090 nM
  TGI: 6420 nM
DU-145 prostate
  GI50: 1570 nM
  TGI: 3120 nM
RXF 393 renal
  GI50: 1700 nM
  TGI: 4290 nM
786-0 renal
  GI50: 2310 nM
  TGI: 8470 nM
A549 NSCLC
  GI50: 2930 nM
  TGI: 19900 nM
SK-MEL-28 melanoma
  GI50: 1590 nM
  TGI: 3100 nM
T-47D breast
  GI50: 1070 nM
  TGI: 2720 nM
HCC-2998 colon
  GI50: 2110 nM
  TGI: 7220 nM
NCI-H226 lung
  GI50: 2630 nM
  TGI: 9470 nM
MOLT-4 leukemia
  GI50: 4190 nM
  TGI: > 23500 nM
HCT-116 colon
  GI50: 820 nM
  TGI: 2890 nM
KM12 colon
  GI50: 2930 nM
  TGI: 12200 nM
HS 578T breast
  GI50: 953 nM
  TGI: 3720 nM
UO-31 renal
  GI50: 2390 nM
  TGI: 7600 nM
HCT-15 colon
  GI50: 2070 nM
  TGI: 10800 nM
SK-MEL-2 melanoma
  GI50: 1760 nM
  TGI: 4540 nM
HOP-92 NSCLC
  GI50: 1500 nM
  TGI: 4710 nM
M14 melanoma
  GI50: 1670 nM
  TGI: 3890 nM
IGROV1 ovarian
  GI50: 2860 nM
  TGI: 14000 nM
HOP-62 NSCLC
  GI50: 3660 nM
  TGI: 10700 nM
NCI-H522 lung
  GI50: 1300 nM
  TGI: 3450 nM
ACHN renal
  GI50: 789 nM
  TGI: 5500 nM
SF-268 CNS
  GI50: 2520 nM
  TGI: 7780 nM
OVCAR-3 ovarian
  GI50: 338 nM
  TGI: 1190 nM
A498 renal
  GI50: 1750 nM
  TGI: 3460 nM
SK-OV-3 ovarian
  GI50: 4590 nM
  TGI: 18100 nM
OVCAR-4 ovarian
  GI50: 447 nM
  TGI: 1750 nM
MALME-3M melanoma
  GI50: 1220 nM
  TGI: 2700 nM
K-562 leukemia
  GI50: 1860 nM
  TGI: > 32400 nM
NCI-H460 lung
  GI50: 2330 nM
  TGI: 11200 nM
SN12C renal
  GI50: 1630 nM
  TGI: 3410 nM
MCF7 breast
  GI50: 353 nM
  TGI: 1590 nM
RPMI-8226 leukemia
  GI50: 343 nM
  TGI: 16300 nM
SNB-75 CNS
  GI50: 1380 nM
  TGI: 3100 nM
SK-MEL-5 melanoma
  GI50: 1030 nM
  TGI: 2520 nM
MDA-MB-231 breast
  GI50: 359 nM
  TGI: 2120 nM
PC-3 prostate
  GI50: 1060 nM
  TGI: 12000 nM
CCRF-CEM leukemia
  GI50: 683 nM
  TGI: > 28700 nM
COLO 205 colon
  GI50: 375 nM
  TGI: 1390 nM
SF-295 CNS
  GI50: 1540 nM
  TGI: 4190 nM
